Data published in patent US11334695B2, “Antiperspirant and deodorant compositions comprising malodor reduction compositions” (The Procter & Gamble Company, priority 2014, dated 2022).

Test: Blocker Index (BI), expert grader ranking of malodor strength of isovaleric acid swatch treated with test material
Description: Making Swatches Treated with the Test Material A clean swatch is treated with 13 μL of a known concentration of a test sample material resulting in an about 1 cm of the solution on the clean swatch. Just like the reference swatches, the test sample material swatch is dried in a vented hood for 30 minutes and then wrapped in aluminum foil to prevent contamination. The test material swatches and the FFI reference swatches should be made within 2 hrs of each other. The test material swatch must be used within 0.5 to 12 hours and discarded after 12 hours. Assigning the FFI to the Test Material At least two perfumers/expert graders are used to assign an FFI grade to a test sample. The perfumer/expert grader smells the test sample swatch by holding that swatch 1 inch from their nose with their nose centered over the area where the test sample was pipetted on to the fabric and then assigns the test sample an FFI grade using the FFI reference scale anchor swatches as references. In cases where the test sample material is graded greater than 3, the test material is not a blocker material or the concentration of the material needs to be lowered and reevaluated to determine if a lower level has a malodor blocker functionality. Method for Assigning the BI to Test Sample The first step in the method for assigning a BI to a test sample material on the BI reference scale is to create the BI reference swatches. […] Fabric swatches for this test are white knit polycotton (4 inch×4 inch) swatches from EMC ordered as PC 50/50. The supplier is instructed to strip the swatches first, stripping involves washing twice with a fragrance-free detergent and rinsing three times. […] The BI scale contains one clean swatch with no malodor applied. […] These solutions are pipetted to the middle of the swatches. […] After drying for 30 minutes in a vented hood, the swatches are wrapped in aluminum foil to prevent odor contamination to the treated swatch. A clean untreated swatch is also included as the lowest anchor point of reference for malodor strength on the BI scale. The BI reference scale swatches should be used within 0.5 to 12 hours and discarded after 12 hours. The swatches are used as scale anchor points when graders evaluate a test sample(s) and are assigned a Blocker Index (BI) as show in Table 12. […] The perfumer/expert grader is asked to rank order swatches according to a scale between 0 and 3.
The reference swatches represent the 0, 1, 2, and 3 BIs on the BI reference scale, Table 12. The expert grader should familiarizes him/herself with the strength of the odor on the BI reference swatches by sniffing each one starting at 0 (the lowest odor strength) and ending at 3 (the highest odor strength). This should be done prior to evaluating the swatch treated with the test material.
Making the Malodorous Swatch and Treating it with a Test Material To evaluate the BI, the test material is applied to a malodorous swatch to determine how well the test material blocks the malodor. […] After drying the malodorous swatch a known concentration of test material solution, between 1 ppm and 100 ppm is pipetted onto the malodorous swatch. […] It is sometimes necessary to evaluate several levels of the test material between about 1 and about 100 ppm to determine the BI. Assigning the BI to the Test Material At least two perfumers/expert graders are used to assign the BI to the test sample. […] The test sample swatch is assigned a BI at or between numbers on the BI in table.

[1] = test material Conc 50 ppm on swatch with 20 μL 0.08% isovaleric acid, scale 0 to 3
[2] = test material Conc 10 ppm on swatch with 20 μL 0.08% isovaleric acid, scale 0 to 3
[3] = test material at 10 ppm on isovaleric acid swatch
[4] = test material at 50 ppm on isovaleric acid swatch

Compound	BI [1]	BI [2]	BI [3]	BI [4]
C=CC(C)=CCC=C(C)C [Material 524]	2.8	–	–	–
CCCCCCCCCCCCCCCC(=O)OC [Material 109]	–	2.0	–	–
CC1(C)C2CCC3(C2)C1C(=O)CCC3(C)C (stereo not shown) [Material 1149]	2.3	1.5	–	–
CCC(=O)OC1CC2C3C=CCC3C1C2(C)C (stereo not shown)	–	–	1.5	2.2
COC(=O)OC1CC/C=C\CCC1 (stereo not shown) [Material 1139]	2.7	2.0	–	–
CCCCCCCCCCCC(=O)OCC [Material 391]	2.2	–	–	–
CC(CCO)CCc1ccccc1 (stereo not shown) [Material 962]	1.7	2.3	–	–
CC(C)(C)C1CCCCC1 [4-tert-butyl cyclohexane]	2.0	2.0	–	–
C=C1CCC2OC2(C)CCC2C1CC2(C)C (stereo not shown) [Material 1148]	2.3	–	–	–
CC1CCC2(C(C)C)CC(C)OC2C1 (stereo not shown)	–	–	2.0	2.2
CC1(C)CCc2ccc(CCC=O)cc21	–	–	1.5	2.7
O=C1CCC2CCCCC2O1 (stereo not shown) [3,4,4a,5,6,7,8,8a-octahydrochromen-2-one]	2.0	2.0	–	–
CC(=O)OCCCCCCC(C)C [Material 204]	2.7	2.0	–	–
CCOC(=O)OC1C(C)CCC(C)C1C (stereo not shown) [Material 1005]	2.6	–	–	–
CC(=O)OC1CC2CC1C1CC=CC21 (stereo not shown) [Material 281]	2.0	2.0	–	–
CCCCCCCCCCCCO [Material 174]	2.3	–	–	–
CCCCCCCCCCCO [Undecanol]	2.3	–	–	–
CCC(O)COC1CCCCC1C(C)(C)C (stereo not shown) [Material 677]	2.0	2.3	–	–
CC1(C)CCc2ccc(CCC=O)cc21 [Material 261]	1.3	1.8	–	–
